Data: patent publication US10913750B2, “Tubulin-binding compounds, compositions and uses related thereto” (The Regents of the University of California, priority 2015, dated 2021)

Columns and labels:
β-tubulin = assay: Crystal structure of T2R-TTL tubulin complex soaked with ligand; type: binding, bovine; details: T2R-TTL crystal soaked 24 hours with 1 mM compound
Description: The crystal structure of tubulin bound to two ligands described here was obtained using an established system for tubulin crystal growth. […] Methods in Cell Biology 2010, 95:373-390.) Briefly, bovine αβ-tubulin, human RB3 or rat STMN4 stathmin-like domain, and chicken tubulin tyrosine ligase (TTL) reconstitute to form a stathmin-bound αβ-tubulin (T2R) T2R-TTL complex, which readily crystallizes. […]
The final resolution cutoffs described here were determined optimally from a subset of diffraction images that took into consideration the signal-to-noise ratio for reflection intensities and the random half-data set correlation coefficient, CC1/2 (Karplus P. A., Diederichs K. Linking crystallographic model and data quality. Science 2012, (New York, N.Y.) 336:1030-1033.) […]

M202 = assay: CellTiter-Glo cell viability, M202; type: cell-based
Description: (§1) To determine if MI-181 had broad anti-cancer activity, we treated a diverse panel of cancer cell lines including cervical adenocarcinoma (HeLa), breast adenocarcinoma (MCF7), melanoma (M233), osteosarcoma (U205), acute lymphoblastic leukemia (CCRF-CEM), non-small cell lung carcinoma (NCI-H460), and breast adenocarcinoma (MCF7) with MI-181 and determined its cell viability IC50 (FIGS. 13A and 13B). […] Therefore, the efficacy of MI-181 was analyzed in a panel of melanoma cell lines with defined genetic backgrounds including BRAF^V600E and NRAS^Q61L mutations and varied sensitivities to Vemurafenib (BRAF inhibitor) and Trametinib (MEK inhibitor), which are currently used to treat BRAF^V600E melanomas^43,44 (FIG. 10c). […] As a general trend BRAF^V600E cell lines were slightly more sensitive than NRAS^Q61L cell lines and MI-181 was effective in Vemurafenib and Trametinib resistant cell lines (FIG. 10c and Table 3). Finally, we tested the ability of MI-181 to inhibit melanoma colony formation using the M233 and M308 cell lines (both resistant to Vemurafenib). Indeed, MI-181 was a potent inhibitor of colony formation (percentage colony formation for 10 nM MI-181=0.2±0.1 and 0.8±0.7; for 10 nM colchicine=0.1±0.06 and 1.5±0.5; and for 10 nM Vemurafenib=94±7 and 102±5) (FIG. 10d). Thus, MI-181 is a potent inhibitor of melanoma cell lines. […]

[1] = test system: breast adenocarcinoma (MCF7); assay: Cell viability, MCF7; type: cell-based; details: Homo sapiens; MCF7 cells
Description: as §1

binding to tubulin in crystal structure (β-tubulin): bound to β-tubulin
IC50 [1]: 11 µM
Structure (SMILES): Cc1cc2nc(/C=C/c3cccnc3)sc2cc1C [MI-181]
IC50 (M202): 88.3 nM
